Test results reported in US8013006B2.

Test system: HCV replicon
Test: microbe, parasite or virus in culture
Format: cell-based
Details: Hepatitis C virus, 48 h, read-out: Replicon IC5Os

Compound	IC50
CCOC(=O)Nc1cccc(-c2c(C#N)c3ccc(OC)cc3n2CC)c1 [Compound 294]	< 0.5 µM
CCn1c(-c2cccc(NC(=O)OCC(C)C)c2)c(C#N)c2ccc(OC)cc21 [Compound 296]	0.5 to 2 µM
CCCOC(=O)Nc1cccc(-c2c(C#N)c3ccc(OC)cc3n2CC)c1 [Compound 297]	0.5 to 2 µM
CCn1c(-c2cccc(NC(=O)OCCOC)c2)c(C#N)c2ccc(OC)cc21 [Compound 298]	0.5 to 2 µM
C=CCOC(=O)Nc1cccc(-c2c(C#N)c3ccc(OC)cc3n2CC)c1 [Compound 299]	0.5 to 2 µM
CCn1c(-c2cccc(NC(=O)OCCCCl)c2)c(C#N)c2ccc(OC)cc21 [Compound 301]	0.5 to 2 µM
CCn1c(-c2cccc(NC(=O)OCCF)c2)c(C#N)c2ccc(OC)cc21 [Compound 302]	0.5 to 2 µM
CCn1c(-c2cccc(NC(=O)OCc3ccccc3)c2)c(C#N)c2ccc(OC)cc21 [Compound 304]	0.5 to 2 µM
CCn1c(-c2cccc(NC(=O)Oc3ccc(Cl)cc3)c2)c(C#N)c2ccc(OC)cc21 [Compound 306]	0.5 to 2 µM
CCn1c(-c2cccc(NC(=O)Oc3ccc(Br)cc3)c2)c(C#N)c2ccc(OC)cc21 [Compound 309]	0.5 to 2 µM
CCn1c(-c2cccc(NC(=O)OC(C)C)c2)c(C#N)c2ccc(OC)cc21 [Compound 310]	0.5 to 2 µM
CCC(C)OC(=O)Nc1cccc(-c2c(C#N)c3ccc(OC)cc3n2CC)c1 (stereo not drawn) [Compound 349]	< 0.5 µM
C#CCOC(=O)Nc1cccc(-c2c(C#N)c3ccc(OC)cc3n2CC)c1 [Compound 350]	0.5 to 2 µM
C=CC(C)OC(=O)Nc1cccc(-c2c(C#N)c3ccc(OC)cc3n2CC)c1 (stereo not drawn) [Compound 351]	0.5 to 2 µM
CCn1c(-c2cccc(NC(=O)OC)c2)c(C#N)c2ccc(OC)cc21 [Compound 353]	< 0.5 µM
CCn1c(-c2ccc(NS(C)(=O)=O)cc2)c(C#N)c2ccc(C(F)(F)F)cc21 [Compound 365]	< 0.5 µM

Same assay, conditions: Hepatitis C virus, 48 h, read-out: Replicon IC5Os μM

Compound	IC50
CCn1c(-c2ccc(OCCN3CC[C@H](O)C3)cc2)c(C#N)c2ccc(OC)cc21 [Compound 264]	0.5 to 2 µM

Same assay, conditions: Replicon IC50 values are determined by firefly luciferase signal; bicistronic replicon, 2 days; read-out: Replicon IC5Os

Compound	IC50
CCn1c(-c2ccc(OCCN3CCN(C)CC3)cc2)c(C#N)c2ccc(OC)cc21 [Compound 263]	0.5 to 2 µM
CCOc1ccc2c(C#N)c(-c3ccc(C(=O)N4CCOCC4)cc3)n(CC)c2c1 [Compound 270]	> 2 µM
CCn1c(-c2ccc(C(=O)N3CCOCC3)cc2)c(C#N)c2ccc(OC(C)C)cc21 [Compound 271]	0.5 to 2 µM
CCn1c(-c2ccc(NS(=O)(=O)C3CC3)cc2)c(C#N)c2ccc(OC)cc21 [Compound 272]	0.5 to 2 µM
CCn1c(-c2ccc(NS(=O)(=O)CCl)cc2)c(C#N)c2ccc(OC)cc21 [Compound 273]	> 2 µM
CCn1c(-c2ccc(S(=O)(=O)N(C)C)cc2)c(C#N)c2ccc(OC)cc21 [Compound 275]	> 2 µM
CCn1c(-c2ccc(S(=O)(=O)N3CCOCC3)cc2)c(C#N)c2ccc(OC)cc21 [Compound 276]	> 2 µM
CCn1c(-c2ccc(S(=O)(=O)NC)cc2)c(C#N)c2ccc(OC)cc21 [Compound 277]	> 2 µM
CCn1c(-c2ccc(S(N)(=O)=O)cc2)c(C#N)c2ccc(OC)cc21 [Compound 278]	> 2 µM
CCn1c(-c2cc3ccccc3o2)c(C#N)c2ccc(OC)cc21 [Compound 282]	> 2 µM
CCn1c(-c2ccc(-c3ccccc3)cc2)c(C#N)c2ccc(OC)cc21 [Compound 283]	> 2 µM
CCn1c(-c2cc3ccccc3s2)c(C#N)c2ccc(OC)cc21 [Compound 286]	0.5 to 2 µM
CCn1c(-c2cccc(NS(=O)(=O)CC)c2)c(C#N)c2ccc(OC)cc21 [Compound 287]	> 2 µM
CCn1c(-c2cccc(NS(=O)(=O)CCCCl)c2)c(C#N)c2ccc(OC)cc21 [Compound 289]	> 2 µM
CCn1c(-c2cccc(C(=O)NCCN3CCOCC3)c2)c(C#N)c2ccc(OC)cc21 [Compound 290]	> 2 µM
CCn1c(-c2cccc(C(N)=O)c2)c(C#N)c2ccc(OC)cc21 [Compound 291]	> 2 µM
CCNC(=O)c1cccc(-c2c(C#N)c3ccc(OC)cc3n2CC)c1 [Compound 292]	> 2 µM
CCn1c(-c2cccc(NC(=O)Oc3ccccc3)c2)c(C#N)c2ccc(OC)cc21 [Compound 293]	> 2 µM
CCCCOC(=O)Nc1cccc(-c2c(C#N)c3ccc(OC)cc3n2CC)c1 [Compound 300]	0.5 to 2 µM
CCn1c(-c2cccc(NC(=O)Oc3ccc(OC)cc3)c2)c(C#N)c2ccc(OC)cc21 [Compound 305]	> 2 µM
CCn1c(-c2cccc(NC(=O)Oc3ccc(F)cc3)c2)c(C#N)c2ccc(OC)cc21 [Compound 307]	0.5 to 2 µM
CCn1c(-c2ccc(NC(=O)OCC(C)C)cc2)c(C#N)c2ccc(OC)cc21 [Compound 311]	> 2 µM
CCCOC(=O)Nc1ccc(-c2c(C#N)c3ccc(OC)cc3n2CC)cc1 [Compound 312]	> 2 µM

Compound	IC50
CCn1c(-c2ccc(NC(=O)OCCOC)cc2)c(C#N)c2ccc(OC)cc21 [Compound 313]	> 2 µM
C=CCOC(=O)Nc1ccc(-c2c(C#N)c3ccc(OC)cc3n2CC)cc1 [Compound 314]	> 2 µM
CCn1c(-c2ccc(NC(=O)OCCCCl)cc2)c(C#N)c2ccc(OC)cc21 [Compound 315]	> 2 µM
CCn1c(-c2ccc(NC(=O)OC3C[C@H](C)CC[C@H]3C(C)C)cc2)c(C#N)c2ccc(OC)cc21 (stereo partly drawn) [Compound 316]	> 2 µM
CCn1c(-c2ccc(NC(=O)OCCF)cc2)c(C#N)c2ccc(OC)cc21 [Compound 317]	> 2 µM
CCn1c(-c2ccc(NC(=O)Oc3ccc(Cl)cc3)cc2)c(C#N)c2ccc(OC)cc21 [Compound 318]	> 2 µM
CCn1c(-c2ccc(NC(=O)Oc3ccc(F)cc3)cc2)c(C#N)c2ccc(OC)cc21 [Compound 319]	> 2 µM
CCn1c(-c2ccc(NC(=O)Oc3ccc(C)cc3)cc2)c(C#N)c2ccc(OC)cc21 [Compound 320]	> 2 µM
CCn1c(-c2cccc(C(=O)NCCCN3CCOCC3)c2)c(C#N)c2ccc(OC)cc21 [Compound 323]	> 2 µM
CCn1c(-c2cccc(NC(=O)CCl)c2)c(C#N)c2ccc(OC)cc21 [Compound 324]	> 2 µM
CCn1c(-c2cccc(NC(=O)c3ccccc3)c2)c(C#N)c2ccc(OC)cc21 [Compound 326]	> 2 µM
CCn1c(-c2cccc(NC(=O)c3ccco3)c2)c(C#N)c2ccc(OC)cc21 [Compound 327]	> 2 µM
CCn1c(-c2cccc(NC(=O)c3cc(C)on3)c2)c(C#N)c2ccc(OC)cc21 [Compound 328]	> 2 µM
CCn1c(-c2cccc(NC(C)=O)c2)c(C#N)c2ccc(OC)cc21 [Compound 329]	> 2 µM
CCn1c(-c2cccc(NC(=O)c3ccc4nonc4c3)c2)c(C#N)c2ccc(OC)cc21 [Compound 330]	> 2 µM
CCn1c(-c2cccs2)c(C#N)c2ccc(OC)cc21 [Compound 337]	> 2 µM
CCn1c(-c2cccc3c2oc2ccccc23)c(C#N)c2ccc(OC)cc21 [Compound 338]	> 2 µM
CCCn1c(-c2ccc(NS(=O)(=O)CC)cc2)cc2ccc(OC)cc21 [Compound 343]	> 2 µM
CCn1c(-c2cn(Cc3ccccc3)cn2)c(C#N)c2ccc(OC)cc21 [Compound 347]	> 2 µM
CCn1c(-c2cc[nH]n2)c(C#N)c2ccc(OC)cc21 [Compound 348]	> 2 µM
C#CCCOC(=O)Nc1cccc(-c2c(C#N)c3ccc(OC)cc3n2CC)c1 [Compound 352]	0.5 to 2 µM
CC#CCOC(=O)Nc1cccc(-c2c(C#N)c3ccc(OC)cc3n2CC)c1 [Compound 354]	0.5 to 2 µM
CCn1c(-c2cccc(NC(=O)OCCl)c2)c(C#N)c2ccc(OC)cc21 [Compound 355]	> 2 µM

Compound	IC50
CCn1c(-c2cccc(NC(=O)OCC(C)(C)C)c2)c(C#N)c2ccc(OC)cc21 [Compound 356]	> 2 µM
CCC(C)OC(=O)Nc1ccc(-c2c(C#N)c3ccc(OC)cc3n2CC)cc1 (stereo not drawn) [Compound 357]	> 2 µM
C#CCOC(=O)Nc1ccc(-c2c(C#N)c3ccc(OC)cc3n2CC)cc1 [Compound 358]	> 2 µM
C=CC(C)OC(=O)Nc1ccc(-c2c(C#N)c3ccc(OC)cc3n2CC)cc1 (stereo not drawn) [Compound 359]	> 2 µM
C#CCCOC(=O)Nc1ccc(-c2c(C#N)c3ccc(OC)cc3n2CC)cc1 [Compound 360]	> 2 µM
CCn1c(-c2ccc(S(=O)(=O)NC3CC3)cc2)c(C#N)c2ccc(OC)cc21 [Compound 363]	0.5 to 2 µM
CCn1c(-c2ccc(NS(C)(=O)=O)cc2)c(C#N)c2ccccc21 [Compound 371]	> 2 µM
CCOC(=O)Nc1ccc(-c2c(C#N)c3ccccc3n2CC)cc1 [Compound 372]	0.5 to 2 µM
CCn1c(-c2cccc(S(N)(=O)=O)c2)c(C#N)c2ccc(OC)cc21 [Compound 373]	> 2 µM
CCCNS(=O)(=O)c1ccc(-c2c(C#N)c3ccc(OC)cc3n2CC)cc1 [Compound 374]	> 2 µM
CCn1c(-c2cccc(N)c2)c(C#N)c2ccc(O)cc21 [Compound 376]	> 2 µM
CCn1c(-c2ccc(C(=O)N3CCCNCC3)cc2)c(C#N)c2ccc(OC)cc21 [Compound 377]	> 2 µM
CCn1c(-c2ccc(C(=O)Nc3ccc(Cl)c(Cl)c3)cc2)c(C#N)c2ccc(OC)cc21 [Compound 380]	> 2 µM
CCn1c(-c2ccc(C(=O)Nc3ccc(C)cc3)cc2)c(C#N)c2ccc(OC)cc21 [Compound 381]	> 2 µM
CCn1c(-c2ccc(C(=O)Nc3ccc(Cl)cc3)cc2)c(C#N)c2ccc(OC)cc21 [Compound 382]	0.5 to 2 µM
CCn1c(-c2cccc(NC(=O)C(C)C)c2)c(C#N)c2ccc(OC)cc21 [Compound 383]	> 2 µM
CCn1c(-c2ccc(C(=O)NC(C)C)cc2)c(C#N)c2ccc(OC)cc21 [Compound 385]	0.5 to 2 µM
CCn1c(-c2ccc(C(=O)NC3CC3)cc2)c(C#N)c2ccc(OC)cc21 [Compound 386]	> 2 µM
CCn1c(-c2ccc(C(=O)N3CCC3)cc2)c(C#N)c2ccc(OC)cc21 [Compound 387]	> 2 µM
CCn1c(-c2ccc(C(=O)NCCO)cc2)c(C#N)c2ccc(OC)cc21 [Compound 388]	> 2 µM
CCn1c(-c2ccc(C(=O)NCCCN3CCOCC3)cc2)c(C#N)c2ccc(OC)cc21 [Compound 389]	> 2 µM
